Literature values in patent US20100322892A1, “PESTICIDE COMPOSITIONS AND APPLICATORS” (BASF CORPORATION, priority 2009, published 2010).

Tests used:
termites = conditions: in vivo
ants = conditions: in vivo

N#Cc1nn(-c2c(Cl)cc(C(F)(F)F)cc2Cl)c(N)c1[S+]([O-])C(F)(F)F (racemic) [fipronil, (±)-5-amino-1-(2,6-dichloro-α,α,α-trifluoro-p-tolyl)-4-trifluoromethylsulfinylpyrazole-3-carbonitrile]
Dose toxic to termites (termites): 2 nanograms per termite | Dose toxic to ants (ants): about 1 nanogram per ant
